# Data reported in article PMC5592744 (Frontiers in Microbiology, 2017).
# Tests used:
# A549 cells [1] = assay type: cell-based
# [2] = system: adhesion of S. aureus to Fn; assay type: cell-based, Staphylococcus aureus
# hla gene = assay type: cell-based, Staphylococcus aureus
# [3] = system: S. aureus biofilm formation; assay type: cell-based, Staphylococcus aureus
# S. aureus USA 300 = assay type: cell-based, Staphylococcus aureus
# SpA display in S. aureus = assay type: cell-based, Staphylococcus aureus
# WT-SrtA = WT-SrtA (Staphylococcus aureus, UniProt Q2FV99); test: biochemical; assay type: binding
# Chain of WT-SrtA (Q2FV99 60-206): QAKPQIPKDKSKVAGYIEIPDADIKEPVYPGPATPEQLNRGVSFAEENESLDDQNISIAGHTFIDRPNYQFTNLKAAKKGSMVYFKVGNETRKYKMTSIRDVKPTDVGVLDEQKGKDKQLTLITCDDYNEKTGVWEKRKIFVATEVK
# S. aureus [4] = system: S. aureus; set-up: species or system C57BL/6J mice; conditions: mouse, in vivo
# S. aureus [5] = test: microbe, parasite or virus in culture; assay type: cell-based; conditions: Staphylococcus aureus, read-out: minimum inhibitory concentration (MIC)
# [6] = system: S. aureus invasion of J774 cells; assay type: cell-based, Staphylococcus aureus
# A549 cells [7] = system: A549 cells
# agrA gene = assay type: cell-based, Staphylococcus aureus
# S. aureus SrtA (WT-SrtA) = S. aureus SrtA (WT-SrtA) (Staphylococcus aureus, UniProt Q2FV99); test: biochemical
# Chain of S. aureus SrtA (WT-SrtA) (Q2FV99 60-206): as above
structure (smiles),measurement,setting,value
O=C(/C=C/c1ccccc1)c1ccccc1 [chalcone],Hla-induced A549 cell injury (Live/Dead),A549 cells [1],obvious reduction in cell injury
same,release of LDH into the supernatants,A549 cells [1],significantly decrease
same,adhesion rate to Fn,[2],no inhibition was observed
same,transcription level of the hla gene,hla gene,down-regulated
same,"biofilm formation, untreated vs. treated",[3],quite significant
same,growth of S. aureus USA 300,S. aureus USA 300,not visibly affected
same,SpA display,SpA display in S. aureus,significant reductions
same,Kd,WT-SrtA,16.4 µM
same,survival rate vs. group without treatment,S. aureus [4],significantly higher
same,MIC,S. aureus [5],> 4.86 mM
same,quantity of bacteria entering J774 cells,[6],significantly decreased
same,cytotoxic effect in A549 cells,A549 cells [7],almost no cytotoxic effect
same,transcription level of the agrA gene,agrA gene,down-regulated
same,IC50,S. aureus SrtA (WT-SrtA),53.2 µM
